The values below come from patent US9290464B2 (priority 2010, dated 2016).

The test system of one test is 6-OHDA-induced rat. Nature of the test: Decrease in neurons of substantia nigra pars compacta in 6-OHDA-induced rat (TH immunohistochemistry and cresyl violet staining). In kind it is in vivo, Wistar rats. The following applies: FIG. 6. How it is done: Wistar rats provided by ORIENT BIO INC. (excipient and CBI n=7, rasagiline n=6; 6-week-old; 20 male rats) were used as an experimental model. One-side injection of 3 μl of a solution containing 20 μg/μl of 6-OHDA was performed on the striatum of each rat (position: front—1.0 mm, rear—3.0 mm, postabdomen side—5.0 mm), thereby inducing the degeneration of neurons in the striatum. […] 4, 5 and 6 weeks after the last day of administration, an apomorphine-induced rotation test was performed on each group. The apomorphine-induced rotation test was performed in such a manner that 0.5 mg/kg of apomorphine was administered to each group of rats via intraperitoneal injection, each group of rats was placed in a rotor chamber, and the rotary movement thereof was recorded for 45 minutes, and thus the number of rotation per minute of each group of rats was measured to determine the average value thereof. In addition, after the apomorphine-induced rotation test performed 6 weeks after the last day of administration, each group of rats was sacrificed, and thus the extent of a decrease in neurons of substantia nigra pars compacta was confirmed using immunohistochemistry staining using an antibody against tyrosine hydroxylase and cresyl violet staining.

Test [1] concerns MAO-B-deficient human neuroblastoma SH-SY5Y cells. Nature of the test: Apoptosis induced by serum starvation in neuroblastoma cells. In kind it is cell-based. Particulars: serum-free medium, FIG. 9. As to the method: In this embodiment, MAO-B-deficient human neuroblastoma SH-SY5Y cells (Korean Cell Line Bank) were used. Apoptosis of the human neuroblastoma cells was induced by serum starvation. The MAO-B-deficient human neuroblastoma SH-SY5Y cells cultured in a normal medium were distributed into a 6-well plate at a concentration of 1.8×10^5 cells/well and incubated for 1 day, the medium was exchanged with a serum-free medium containing CBI (0.1, 1 and 10), a serum-free medium containing rasagiline (0.1, 1 and 10), or a serum-free medium containing neither CBI or rasagiline, and the cell was further incubated in 5% CO2 at 37° C. for 48 hours.

The next test concerns Bcl-xL. The test can be described thus: Amount of Bcl-xL protein by western blotting in apoptosis-induced cells. In kind it is cell-based, human. Particulars: serum-free medium, 24 hours; FIG. 11. The source says: Meanwhile, a variety of signal transduction proteins are involved in a process for mediating or inhibiting apoptosis, and representative examples thereof include Bcl-2 gene family proteins (Journal of Bioenergetics and Biomembranes, 37:179-190 (2005); J. Cell Mol. Med., 7:249-257 (2003); Genes and Development, 13:1899-1911 (1999)). Thus, 0.1, 1 and 10 of CBI or 0.1, 1 and 10 of rasagiline were respectively added to the apoptosis-induced cells as described above, the resulting cells were further incubated in 5% of CO2 at 37° C. for 24 hours, mRNA was extracted from the cultured cells or a cell extract was obtained therefrom, and thus the amount of Bcl-2 mRNA and the amounts of Bcl-2 and Bcl-xL proteins were measured. The amount of Bcl-2 mRNA was measured by real-time RT-PCR, and the amounts of Bcl-2 and Bcl-xL proteins were measured by western blotting.
For western blotting, the SH-SY5Y cells were lysed with RIPA buffer (50 mM Tris-Cl pH 7.4, 1% NP-40, 0.25% sodium deoxycholate, 0.1% SDS, 150 mM NaCl, 1 mM EDTA) and then centrifuged to obtain a cell extract. […]

In a further test the test system is cytochrome c. Nature of the test: Release of cytochrome c into cytoplasm (western blot) in MPP+-treated cells. In kind it is cell-based, human. Particulars: MPP+-added neurons; FIG. 17. The source says: In addition, apoptosis is known to be caused by mechanisms of release of cytochrome c from mitochondria and activation of caspase 3 (The New England journal of Medicine, 348:1365-1375 (2003)). To confirm whether or not the stability of the transmembrane potential of mitochondria by the treatment of CBI is associated with anti-apoptosis of neurons, cell extracts were obtained from the groups of cells, and thus the amount of cytochrome c and the activity of caspase 3 in the cell cytoplasm were measured.
SH-SY5Y cells were incubated under the same conditions as described in Example 7, and then washed with PBS. A protease inhibitor cocktail (Roche) and a phosphatase inhibitor cocktail (Roche) were added to a […] buffer (20 mM HEPES, 10 mM KCl, 2 mM MgCl2, 1 mM EDTA), and the SH-SY5Y cells were treated with 100 ul of the resulting solution and then suspended uniformly. The resultant was maintained on ice for 30 minutes, and then centrifuged at 12,000 rpm for 20 minutes. Subsequently, the same amount of the supernatant was loaded onto a SDS-PAGE gel followed by electrophoresis, the gel was transferred onto a nitrocellulose membrane, the membrane was blotted using cytochrome c (Santacruz, sc13156) diluted to 1:2000 by using a well-known method in the art, and the expression of cytochrome c was evaluated using ECL kit (Amersham Pharmacia).

In test [2] the test system is MAO-B-deficient human neuroblastoma SH-SY5Y cells. The test can be described thus: Reactive oxygen species (DCF-DA staining) in MPP+-treated cells. In kind it is cell-based. The following applies: 2 mM MPP+, 50 nM, 24 hours; FIGS. 19 and 20. As to the method: In this embodiment, MAO-B-deficient human neuroblastoma SH-SY5Y cells (Korean Cell Line Bank) were used. The cells were cultured in a DMEM medium at 37° C. with 5% of CO2 for 24 hours. The cultured cells were divided into three groups, 2 mM of MPP^+ was added to each group, one of the three groups was treated with 50 nM of CBI, one of the other two groups was treated with 50 nM of rasagiline, and the three groups were further incubated with 5% of CO2 at 37° C. for 24 hours. The group with only MPP^+ added thereto was incubated under the same conditions as described above. Subsequently, the cells were stained with 2,7-dichlorofluorescein diacetate (DCF-DA), which is a fluorescence dye capable of detecting reactive oxygen species, and then observed using a confocal microscope (Nikon Co., Japan).

Another test has as its system catalase. Nature of the test: Activity of catalase in striatum and substantia nigra of mouse. It counts as in vivo, C57BL/6 mice. The following applies: 1 mg/kg oral for 8 days, no neurotoxin, FIG. 22.
Another test relates to GPx. Nature of the test: Activity of GPx in striatum and substantia nigra of mouse. Particulars: 1 mg/kg oral for 8 days, no neurotoxin, FIG. 22. In kind it is in vivo, C57BL/6 mice.

Protocol for catalase: Next day after the last day of administration, striatum and substantia nigra tissues were taken out of each group of mice. Cell extracts were obtained from the cells of the tissues, and thus the activities of the catalase, SOD and GPx were measured.

`NC(=O)OCc1cc(-c2ccc(OCc3ccccc3)cc2)no1` [CBI, carbamic acid 3-(4-benzyloxy-phenyl)-isoxazole-5-yl methylester]: the “effect on decrease in neurons compared with rasagiline group” value in the test on 6-OHDA-induced rat (1 mg/kg oral each) is given as “superior effect”. Further, in the test on 6-OHDA-induced rat (1 mg/kg oral, 1 hour before 6-OHDA and once every other day for 6 weeks), the “extent of a decrease in neurons of substantia nigra pars compacta” value was “significantly decreased extent of a decrease in neurons”. Moreover, in test [1] (10 (unit not given), 48 hours), the “higher extent of a decrease in the apoptosis of neurons than with 10 of rasagiline” value is listed as “about 33%”. The “extent of the apoptosis of neurons” value in test [1] (48 hours, 0.1, 1 and 10 (unit not given)) was “decreased”. The “amount of Bcl-xL relative to control” value in the test on Bcl-xL is reported as “larger than that in the control”. Moreover, in the test with cytochrome c, the “amount of cytochrome c in the cytoplasm” value is recorded as “decreased” and the “amount of cytochrome c released from mitochondria compared with same amount of rasagiline” value was “smaller”. In addition, the reactive oxygen species result in test [2] was “significantly decreased”. Also, the “increase of the activity of the catalase in the striatum” value in the test on catalase is given as “about 13%”. In addition, the “increase of the activity of the GPx in substantia nigra” value in the test on GPx is recorded as “about 28%”.
